According to patent publication US9469606B2, “Wnt/b-catenin inhibitors and methods of use” (The General Hospital Corporation, priority 2011, dated 2016):

Tests used:
[1] = system: Wnt/β-catenin-dependent cancer cells; assay: Colony formation; assay type: cell-based; details: a number of Wnt/β-catenin-dependent cancer cells
Text: (§1) See, for example: • Polakis P. Drugging Wnt signalling in cancer. EMBO J. 2012 May 22; 31(12):2737-46; Bialkowska A B, Yang V W. High-throughput screening strategies for targeted identification of therapeutic compounds in colorectal cancer. Future Oncol. 2012 March; 8(3):259-72; • Huang S M, Mishina Y M, Liu S, Cheung A, Stegmeier F, Michaud G A, Charlat O, Wiellette E, Zhang Y, Wiessner S. Hild M, Shi X, Wilson C J, Mickanin C. Myer V, Fazal A, Tomlinson R, Serluca F, Shao W, Cheng H, Shultz M, Rau C, Schirle M, Schlegl J, Ghidelli S, Fawell S, Lu C, Curtis D, Kirschner M W, Lengauer C. Finan P M, Tallarico J A, Bouwmeester T, Porter J A, Bauer A, Cong F. Tankyrase inhibition stabilizes axin and antagonizes Wnt signalling. Nature. 2009 Oct. 1; 461(7264):614-20; • Chen B, Dodge M E, Tang W, Lu J, Ma Z, Fan C W, Wei S, Hao W, Kilgore J, Williams N S, Roth M G, Amatruda J F. Chen C. Lum L. Small molecule-mediated disruption of Wnt-dependent signaling in tissue regeneration and cancer. Nat Chem. Biol. 2009 February; 5(2): 100-7; • Thorne C A, Hanson A J, Schneider J, Tahinci E, Orton D, Cselenyi C S, Jernigan K K, Meyers K C, Hang B I, Waterson A G, Kim K, Melancon B, Ghidu V P, Sulikowski G A, LaFleur B, Salic A, Lee L A, Miller D M 3rd, Lee E. Small-molecule inhibition of Wnt signaling through activation of casein kinase 1α. […]

normal cells = assay: Cytotoxicity in normal cells; assay type: cell-based
Text: as §1

[2] = system: H460 human lung cancer cells; assay: Wnt/b-catenin-independent tumor growth, H460; assay type: in vivo; details: Wnt/b-catenin-independent H460 tumors in mice
Text: as §1

β-catenin [3] = assay: β-catenin protein level and phosphorylation in HCT116 cells; assay type: cell-based, human
Text: as §1

[4] = system: Wnt/β-catenin-dependent cancer cells; assay: Cytotoxicity in Wnt/β-catenin-dependent cancer cells; assay type: cell-based
Text: as §1

β-catenin [5] = assay: Western blotting and immunoprecipitation of β-catenin forms; assay type: cell-based
Text: as §1, with “1α. Nat Chem. Biol. 2010 November; 6(11):829-36; • Wei W, Chua M S. Grepper S, So S. Small molecule antagonists of Tcf4/beta-catenin complex inhibit the growth of HCC cells in vitro and in vivo. Int J Cancer. 2010 May 15; 126(10):2426-36; • Lepourcelet M, Chen Y N, France D S, Wang H, Crews P, Petersen F, Bruseo C, Wood A W, Shivdasani R A. Small-molecule antagonists of the oncogenic Tcf/beta-catenin protein complex. Cancer Cell. 2004 January; 5(1):91-102; • Grossmann T N, Yeh J T, Bowman B R, Chu Q, Moellering R E, Verdine G L. Inhibition of oncogenic Wnt signaling through direct targeting of β-catenin. Proc Natl Acad Sci USA. 2012 Oct. 15.” for “1α.”

[6] = system: H23 human lung cancer cells; assay: Xenograft study, H23; assay type: in vivo; details: H23 xenograft in mice, 20 mg/kg daily i.p.
Protocol: (§2) A, HCT116 colon cancer cells; B, HT115 colon cancer cells; and C, H23 human lung cancer cells. 20 mg/kg was injected daily via i.p.
as §1, with “cancer.” for “cancer. Nat Chem. Biol. 2009 February; 5(2): 100-7; • Thorne C A, Hanson A J, Schneider J, Tahinci E, Orton D, Cselenyi C S, Jernigan K K, Meyers K C, Hang B I, Waterson A G, Kim K, Melancon B, Ghidu V P, Sulikowski G A, LaFleur B, Salic A, Lee L A, Miller D M 3rd, Lee E. Small-molecule inhibition of Wnt signaling through activation of casein kinase 1α.”

β-catenin/TCF = assay: TCF/LEF reporter (TOP-Luciferase) assay in Wnt-dependent HCT116; assay type: cell-based, human
Text: as §1

[7] = system: Wnt/β-catenin-independent cancer cells; assay: Cytotoxicity in Wnt/β-catenin-independent cancer cells; assay type: cell-based
Text: as §1

HT115 colon cancer cells = assay: Xenograft study, HT115; assay type: in vivo; details: HT115 xenograft in mice, 20 mg/kg daily i.p.
Protocol: as §2
as §1, with “cancer.” for “cancer. Nat Chem. Biol. 2009 February; 5(2): 100-7; • Thorne C A, Hanson A J, Schneider J, Tahinci E, Orton D, Cselenyi C S, Jernigan K K, Meyers K C, Hang B I, Waterson A G, Kim K, Melancon B, Ghidu V P, Sulikowski G A, LaFleur B, Salic A, Lee L A, Miller D M 3rd, Lee E. Small-molecule inhibition of Wnt signaling through activation of casein kinase 1α.”

β-catenin [8] = assay: Wnt-induced β-catenin accumulation; assay type: cell-based
Text: as §1

[9] = system: β-catenin/TCF-dependent genes; assay: Wnt/β-catenin target gene expression (real-time quantitative PCR, protein level); assay type: cell-based
Protocol: A. mRNA expression was measured by Real-time quantitative PCR.
as §1, with “1α. Nat Chem. Biol. 2010 November; 6(11):829-36; • Wei W, Chua M S. Grepper S, So S. Small molecule antagonists of Tcf4/beta-catenin complex inhibit the growth of HCC cells in vitro and in vivo. Int J Cancer. 2010 May 15; 126(10):2426-36; • Lepourcelet M, Chen Y N, France D S, Wang H, Crews P, Petersen F, Bruseo C, Wood A W, Shivdasani R A. Small-molecule antagonists of the oncogenic Tcf/beta-catenin protein complex. Cancer Cell. 2004 January; 5(1):91-102; • Grossmann T N, Yeh J T, Bowman B R, Chu Q, Moellering R E, Verdine G L. Inhibition of oncogenic Wnt signaling through direct targeting of β-catenin. Proc Natl Acad Sci USA. 2012 Oct. 15.” for “1α.”

mammary tumor = assay: Spontaneous mouse model of breast cancer (MMTV-Wnt1); assay type: in vivo; details: MMTV-Wnt1 tumor mice
Text: Raj L, Ide T, Gurkar A U, Foley M, Schenone M, Li X, Tolliday N J, Golub T R, Carr S A, Shamji A F, Stern A M, Mandinova A, Schreiber S L, Lee S W. Selective killing of cancer cells by a small molecule targeting the stress response to ROS. Nature. 2011 Jul. 13; 475(7355):231-4; • Huang S, Li Y, Chen Y, Podsypanina K, Chamorro M, Olshen A B, Desai K V, Tann A, Petersen D, Green J E, Varmus H E. Changes in gene expression during the development of mammary tumors in MMTV-Wnt-1 transgenic mice. Genome Biol. 2005; 6(10):R84.

[10] = system: HCT116 colon cancer cells; assay: Xenograft study, HCT116; assay type: in vivo; details: HCT116 xenograft in mice, 20 mg/kg daily i.p.
Protocol: as §2
as §1, with “cancer.” for “cancer. Nat Chem. Biol. 2009 February; 5(2): 100-7; • Thorne C A, Hanson A J, Schneider J, Tahinci E, Orton D, Cselenyi C S, Jernigan K K, Meyers K C, Hang B I, Waterson A G, Kim K, Melancon B, Ghidu V P, Sulikowski G A, LaFleur B, Salic A, Lee L A, Miller D M 3rd, Lee E. Small-molecule inhibition of Wnt signaling through activation of casein kinase 1α.”

[11] = system: beta-catenin target gene promoters; assay: ChIP-RT-PCR of β-catenin recruitment to target promoters in HCT116 cells; assay type: cell-based, human
Text: as §1

SMILES: COC(=O)c1cccc(NS(=O)(=O)c2ccc(C)cc2)c1 [OC0021, methyl 3-{[(4-methylphenyl)sulfonyl]amino}benzoate]
- colony formation [1]: inhibits colony formation
- cytotoxic effect (normal cells): no significant cytotoxic
- tumor growth [2]: does not affect
- beta-catenin protein levels (β-catenin [3]; HCT116 cells): decreases beta-catenin protein levels
- β-catenin degradation / phosphorylation at T41/S45 (β-catenin [3]; HCT116 colon cancer cells): promotes β-catenin degradation via increased β-catenin phosphorylation at T41/S45
- cytotoxic effect [4]: cytotoxic effect
- ABC (Active form of b-catenin) (β-catenin [5]): supresses ABC
- expression of oncogene Myc target gene (β-catenin [5]): inhibits the expression of oncogene Myc target gene
- phosphorylated β-catenins (phospho-β-catenin-33/37/41; -41/45) (β-catenin [5]): increases phosphorylated β-catenins
- anti-tumor activity [6]: anti-tumor activity
- TCF/LEF reporter activity (β-catenin/TCF): inhibits the TCF/LEF reporter activity
- transcriptional activity of β-catenin/TCF (β-catenin/TCF; human colon cancer cells HCT116 with beta-catenin mutation): inhibits the transcriptional activity of β-catenin/TCF in a dose dependent manner
- cytotoxic effect [7]: no significant cytotoxic
- anti-tumor activity (HT115 colon cancer cells): anti-tumor activity
- Wnt-induced β-catenin accumulation (β-catenin [8]): inhibits Wnt-induced β-catenin accumulation
- protein level of endogenous β-catenin/TCF-dependent genes, Cyclin D1 and c-Myc [9]: down regulates the protein level
- stability of Axin1 and Axin2 [9]: enhances stability of Axin1 and Axin2
- Wnt/β-catenin-mediated gene transcription (mRNA expression of Myc, cyclin D1, Axin1 and 2) ([9]; Real-time quantitative PCR): modulates Wnt/β-catenin-mediated gene transcription
- growth of mammary tumor (mammary tumor): inhibits the growth of mammary tumor
- anti-tumor activity [10]: anti-tumor activity
- beta-catenin binding its target gene promoters [11]: inhibits beta-catenin binding its target gene promoters
